Reference: patent publication US20250136584A1, “Benzimidazole Or Azabenzimidazole Compound, Preparation Method Therefor And Use Thereof” (Chengdu Di'Ao Jiuhong Pharmaceutical Factory, priority 2022, published 2025)

Experiments:
GLP1R = GLP1R (Homo sapiens, UniProt P43220); experiment: Agonist activity on GLP1R/CRE-LUC HEK293 cells (luciferase reporter, ONE-Glo); type: cell-based; conditions: for EC50: GLP1R/CRE-LUC HEK293 cells, 6 hours incubation, chemiluminescence signal; for activity compared with comparative example compounds PF-06882961, DB02, DB03 and DB06: from Table 1, also much higher than DB04 and DB05
GLP1R, sequence (P43220 24-463): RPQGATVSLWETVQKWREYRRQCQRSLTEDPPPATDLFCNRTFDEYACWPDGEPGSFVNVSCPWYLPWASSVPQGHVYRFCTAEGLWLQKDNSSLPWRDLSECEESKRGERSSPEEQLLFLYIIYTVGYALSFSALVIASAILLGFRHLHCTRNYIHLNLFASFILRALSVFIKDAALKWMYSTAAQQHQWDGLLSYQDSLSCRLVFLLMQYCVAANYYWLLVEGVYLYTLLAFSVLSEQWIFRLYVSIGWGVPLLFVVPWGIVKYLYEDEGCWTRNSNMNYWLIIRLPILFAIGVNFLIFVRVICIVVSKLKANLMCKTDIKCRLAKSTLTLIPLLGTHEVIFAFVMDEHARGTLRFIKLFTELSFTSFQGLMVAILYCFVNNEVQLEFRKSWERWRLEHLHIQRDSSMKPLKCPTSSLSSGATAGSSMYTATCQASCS
Procedure: Logarithmically growing GLP1R/CRE-LUC HEK293 cells (purchased from Nanjing Cobioer) were digested, the digested cells were re-suspended in a DMEM+10% FBS culture medium, and a cell density was adjusted to be 3.5*10^5/mL. The cell solution was added into a 96-well cell culture plate by 100 µL/well, and the plate was cultured overnight in an incubator (37° C., 5% CO2).
A compound was dissolved with DMSO to prepare a storage solution at an initial concentration of 10 mM, an initial concentration of the small molecular compound was 0.2 mM, and the compound was diluted by 3 times and 10 points were diluted, while the 11th point was DMSO. Another 96-well plate was taken, added with 95 μL of cell culture solution (DMEM+10% FBS) in each well, then added with 5 μL of to-be-tested samples at different concentrations in each well, mixed evenly, and then added with 11 μL of to-be-tested samples at different concentrations in each well of the cell culture plate, and each sample had two wells. The culture plate was incubated in an incubator for 6 hours (37° C., […]). The 96-well cell culture plate was taken out, added with 100 μL of ONE-Glo™ reagent in each well, and incubated at room temperature for 10 minutes, and a chemiluminescence signal value was measured with an enzyme-labeled instrument. Data were processed and analyzed by Microsoft Excel and Graphpad Prism6 to obtain an EC50 value of the compound.

hERG potassium channel = molecular target: T1, hERG potassium channel (Homo sapiens, UniProt Q12809); experiment: hERG test, patch clamp on HEK-293 cells stably expressing hERG potassium channel; type: cell-based; conditions: HEK-293 cell line stably expressing hERG, read-out: IC50 (μM) of inhibitory effect on hERG potassium channel current
T1 construct: host or cells: HEK-293 stably expressing hERG
T1 sequence (Q12809 whole entry): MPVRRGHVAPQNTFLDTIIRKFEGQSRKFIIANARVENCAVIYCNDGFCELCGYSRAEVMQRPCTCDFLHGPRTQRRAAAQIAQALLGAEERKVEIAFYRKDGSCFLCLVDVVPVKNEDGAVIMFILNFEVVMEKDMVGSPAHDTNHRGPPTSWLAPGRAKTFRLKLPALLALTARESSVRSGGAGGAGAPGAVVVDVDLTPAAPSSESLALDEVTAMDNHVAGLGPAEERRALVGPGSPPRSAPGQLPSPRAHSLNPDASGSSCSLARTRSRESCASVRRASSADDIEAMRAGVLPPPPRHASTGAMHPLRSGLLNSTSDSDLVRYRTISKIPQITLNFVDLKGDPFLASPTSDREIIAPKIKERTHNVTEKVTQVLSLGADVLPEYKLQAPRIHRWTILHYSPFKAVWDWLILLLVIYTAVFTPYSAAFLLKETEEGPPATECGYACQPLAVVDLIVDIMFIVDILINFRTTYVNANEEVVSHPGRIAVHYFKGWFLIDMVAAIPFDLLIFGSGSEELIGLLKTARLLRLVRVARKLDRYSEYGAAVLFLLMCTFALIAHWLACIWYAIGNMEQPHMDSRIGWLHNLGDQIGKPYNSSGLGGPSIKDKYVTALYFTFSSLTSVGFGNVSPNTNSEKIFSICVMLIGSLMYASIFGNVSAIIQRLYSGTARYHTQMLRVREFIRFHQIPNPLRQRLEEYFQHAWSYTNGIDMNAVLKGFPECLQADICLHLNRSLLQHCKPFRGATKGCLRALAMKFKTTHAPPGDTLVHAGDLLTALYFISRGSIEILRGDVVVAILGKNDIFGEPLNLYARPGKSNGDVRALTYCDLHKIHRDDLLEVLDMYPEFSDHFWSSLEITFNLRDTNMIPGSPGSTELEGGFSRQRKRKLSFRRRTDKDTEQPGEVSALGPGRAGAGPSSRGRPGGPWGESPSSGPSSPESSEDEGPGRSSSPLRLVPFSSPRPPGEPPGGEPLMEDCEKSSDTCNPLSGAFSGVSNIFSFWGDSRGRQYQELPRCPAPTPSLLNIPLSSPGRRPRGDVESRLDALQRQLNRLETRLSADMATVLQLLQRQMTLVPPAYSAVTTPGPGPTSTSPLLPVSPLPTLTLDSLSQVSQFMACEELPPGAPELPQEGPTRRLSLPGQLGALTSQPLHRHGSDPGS
Procedure: Test object: influences of compounds on an hERG potassium channel current were tested by a full-automatic patch clamp method.
• (1) An HEK-293 cell line stably expressing an hERG potassium channel was adopted, and hERG potassium channel cells were purchased from Creacell Company. • (2) The HEK-293 cell line stably expressing the hERG potassium channel was cultured in a DMEM culture medium containing 10% fetal bovine serum and 0.8 mg/mL G418 at 37° C. under a carbon dioxide concentration of 5%. • (3) Cell passage: the old culture medium was removed, and the cells were washed once with PBS, then added with 1 mL of TrypLE™ Express solution, and incubated at 37° C. for about 0.5 minutes. When the cells were separated from a dish bottom, about 5 mL of complete culture medium preheated at 37° C. was added. A cell suspension was gently blown with a straw to separate the aggregated cells. The cell suspension was transferred to a sterile centrifuge tube and centrifuged at 1000 rpm for 5 minutes to collect the cells. In amplification or maintenance of culture, the cells were inoculated into a 6 cm cell culture dish, and the number of cells inoculated into each cell culture dish was 2.5×10^5 cells (final volume: 5 mL). In order to maintain an electrophysiological activity of cells, a cell density should not exceed 80%. • (4) In patch clamp detection, before the test, the cells were separated by TrypLE™ Express, and 4×10^3 cells were spread on a cover slip and cultured in a 24-well plate (final volume: 500 μL). After 18 hours, the test was carried out for detection. Data analysis:
A current after an effect of each drug concentration and a blank control current
were standardized first, and then an inhibition rate
corresponding to each drug concentration was calculated. A mean number and a standard error were calculated for each concentration, and a semi-inhibitory concentration of each compound was calculated by the following equation: […]
A dosage-dependent effect was nonlinearly fitted by the above equation, wherein C represented a concentration of a test sample, IC50 represented a semi-inhibitory concentration, and h represented a Hill coefficient. Curve fitting and IC50 calculation were completed by IGOR software.

hGLP1R mice = experiment: Glucose tolerance test in hGLP1R mice after single oral administration; type: in vivo; conditions: 1 mg/kg oral once; for onset of blood glucose reduction compared with comparative example compound DB05 / blood glucose reduction effect compared with comparative example compound DB05: FIG. 1 and FIG. 2; for blood glucose reduction effect compared with PF-06882961: glucose 2 g/kg i.p. 60 minutes later; for blood glucose reduction effect compared with PF-06882961 / blood glucose reduction effect compared with comparative example compound DB05: blood glucose curves and AUC (0 to 120 minutes)
Procedure: Genetically engineered hGLP1R mice, male, purchased from Biocytogen Jiangsu Gene Biotechnology Co., Ltd., were fasted overnight before the glucose tolerance test (IPTGG), without water deprivation. A solvent or corresponding compound was orally administered once, a glucose solution (2 g/kg) was intraperitoneally injected 60 minutes after administration, and a blood glucose value before administration of glucose (equivalent to a blood glucose value of 0 minute) and blood glucose values 15 minutes, 30 minutes, 60 minutes and 120 minutes after administration of glucose were measured. The solvent was 5% DMSO+40% PEG400+55% physiological saline, and a dosage of the compound was 1 mg/kg (n=3).

Structure (SMILES)	EC50 (GLP1R) [nM]	activity compared with comparative example compounds PF-06882961, DB02, DB03 and DB06 (GLP1R)	also measured
O=C(O)c1ccc2nc(Cc3ccc(-c4ccc(F)c(OCc5ccc(F)c6cc(Cl)oc56)n4)cc3F)n(C[C@@H]3CCO3)c2c1 [Compound 104]	1.76	higher	IC50 (hERG potassium channel): > 30 µM
Cc1cc2c(Cl)ccc(COc3cccc(-c4ccc(Cc5nc6ccc(C(=O)O)cc6n5C[C@@H]5CCO5)c(F)c4)n3)c2o1 [Compound 102]	9.1	higher	
O=C(O)c1ccc2nc(Cc3ccc(-c4cccc(OCc5ccc(Cl)c6ccoc56)n4)cc3F)n(C[C@@H]3CCO3)c2c1F [Compound 91]	0.76	higher	
O=C(O)c1ccc2nc(CC3=CCN(c4cccc(OCc5ccc(Cl)c6ccoc56)n4)CC3)n(C[C@@H]3CCO3)c2c1 [Compound 2]	101		
O=C(O)c1ccc2nc(Cc3c(F)cc(-c4cccc(OCc5ccc(Cl)c6ccoc56)n4)cc3F)n(C[C@@H]3CCO3)c2c1 [Compound 101]	0.69	higher	
O=C(O)c1ccc2nc(Cc3ccc(-c4cccc(OCc5ccc(Cl)c6ccoc56)n4)cc3F)n(C[C@@H]3CCO3)c2n1 [Compound 38]	7.53	higher	onset of blood glucose reduction compared with comparative example compound DB05 (hGLP1R mice): took effect more quickly; blood glucose reduction effect compared with PF-06882961 (hGLP1R mice): significantly better; blood glucose reduction effect compared with comparative example compound DB05 (hGLP1R mice): significantly better
O=C(O)c1ccc2nc(CN3CC=C(c4cccc(OCc5ccc(Cl)c6ccoc56)n4)CC3)n(C[C@@H]3CCO3)c2c1 [DB02, reference compound]	13.6		
O=C(O)c1ccc2nc(CC3CC=C(c4cccc(OCc5ccc(Cl)c6cc(Cl)oc56)n4)CC3)n(C[C@@H]3CCO3)c2c1 (stereo partly drawn) [Compound 108]	3.11	higher	
O=C(O)c1ccc2nc(Cc3ccc(-c4ccc(F)c(OCc5ccc(F)c6ccoc56)n4)cc3F)n(C[C@@H]3CCO3)c2c1 [Compound 103]	1.17	higher	
O=C(O)c1ccc2nc(Cc3ccc(-c4cccc(OCc5cccc6c5oc5ccccc56)n4)cc3F)n(C[C@@H]3CCO3)c2c1 [Compound 61]			onset of blood glucose reduction compared with comparative example compound DB05 (hGLP1R mice): took effect more quickly; blood glucose reduction effect compared with PF-06882961 (hGLP1R mice): significantly better; blood glucose reduction effect compared with comparative example compound DB05 (hGLP1R mice): significantly better
N#Cc1ccc(COc2cccc(N3CCC(Cc4nc5ccc(C(=O)O)cc5n4C[C@@H]4CCO4)CC3)n2)c2occc12 [Compound 3]	65.1		
O=C(O)c1ccc2nc(Cc3ccc(-c4cccc(OCc5ccc(Cl)c6cc(F)oc56)n4)cc3F)n(C[C@@H]3CCO3)c2c1F [Compound 92]	1.76	higher	
O=C(O)c1ccc2nc(Cc3ccc(-c4cccc(OCc5ccc(F)c6ccoc56)n4)cc3F)n(C[C@@H]3CCO3)c2c1 [Compound 87]			IC50 (hERG potassium channel): > 30 µM
O=C(O)c1ccc2nc(CC3CC=C(c4ccc(F)c(OCc5ccc(Cl)c6cc(Cl)oc56)n4)CC3)n(C[C@@H]3CCO3)c2c1 (stereo partly drawn) [Compound 107]	1.9	higher	blood glucose reduction effect compared with PF-06882961 (hGLP1R mice): significantly better
N#Cc1ccc(COc2cccc(-c3ccc(Cc4nc5ccc(C(=O)O)nc5n4C[C@@H]4CCO4)c(F)c3)n2)c2occc12 [Compound 67]	1.97	higher	
O=C(O)c1cc(F)c2nc(Cc3ccc(-c4cccc(OCc5ccc(Cl)c6ccoc56)n4)cc3F)n(C[C@@H]3CCO3)c2c1 [Compound 105]	1.09	higher	
O=C(O)c1ccc2nc(CN3CC=C(c4cccc(OCc5cccc6c5oc5ccccc56)n4)CC3)n(C[C@@H]3CCO3)c2n1 [Compound 14]	6.76	higher	
O=C(O)c1ccc2nc(CC3CCN(c4cccc(OCc5ccc(Cl)c6ccoc56)n4)CC3)n(C[C@@H]3CCO3)c2c1 [Compound 1]	114		
N#Cc1ccc(COc2cccc(-c3ccc(Cc4nc5ccc(C(=O)O)cc5n4C[C@@H]4CCO4)c(F)c3)n2)c2occc12 [Compound 19]	3.2	higher	onset of blood glucose reduction compared with comparative example compound DB05 (hGLP1R mice): took effect more quickly; blood glucose reduction effect compared with PF-06882961 (hGLP1R mice): significantly better; blood glucose reduction effect compared with comparative example compound DB05 (hGLP1R mice): significantly better
O=C(O)c1ccc2nc(CC3CC=C(c4cccc(OCc5cccc6c5oc5ccccc56)n4)CC3)n(C[C@@H]3CCO3)c2c1 (stereo partly drawn) [Compound 15]	25.8		
COCCn1c(Cc2ccc(-c3cccc(OCc4ccc(Cl)c5ccoc45)n3)cc2F)nc2ccc(C(=O)O)cc21 [DB05, reference compound]	312		
O=C(O)c1ccc2nc(CC3CC=C(c4ccc(F)c(OCc5ccc(Cl)c6ccoc56)n4)CC3)n(C[C@@H]3CCO3)c2c1 (stereo partly drawn) [Compound 106]	5.87	higher	blood glucose reduction effect compared with PF-06882961 (hGLP1R mice): significantly better
O=C(O)c1ccc2nc(Cc3ccc(-c4nc(OCc5ccc(Cl)c6ccoc56)c(F)cc4F)cc3F)n(C[C@@H]3CCO3)c2c1 [Compound 96]	3.02	higher	
O=C(O)c1ccc2nc(CN3CC=C(c4cccc(OCc5cccc6c5oc5ccccc56)n4)CC3)n(C[C@@H]3CCO3)c2c1 [Compound 13]	13.6	higher	
O=C(O)c1ccc2nc(Cc3ccc(-c4nc(OCc5ccc(Cl)c6ccoc56)ccc4F)cc3F)n(C[C@@H]3CCO3)c2c1 [Compound 95]	2.33	higher	
COCCn1c(Cc2ccc(-c3cccc(OCc4ccc(C#N)c5ccoc45)n3)cc2F)nc2ccc(C(=O)O)cc21 [DB04, reference compound]	275		
O=C(O)c1ccc2nc(Cc3ccc(-c4ccc(F)c(OCc5cccc6c5oc5ccccc56)n4)cc3F)n(C[C@@H]3CCO3)c2c1 [Compound 97]	7.57	higher	
O=C(O)c1ccc2nc(CC3CC=C(c4cccc(OCc5ccc(Cl)c6ccoc56)n4)CC3)n(C[C@@H]3CCO3)c2c1 (stereo partly drawn) [Compound 7]	20.9		IC50 (hERG potassium channel): > 30 µM
O=C(O)c1ccc2nc(Cc3cc(F)c(-c4cccc(OCc5ccc(Cl)c6ccoc56)n4)cc3F)n(C[C@@H]3CCO3)c2c1 [Compound 25]	11.5	higher	
